Experimental data taken from patent publication US20230085307A1, “PYRIDAZINONE COMPOUND AND HERBICIDE” (NISSAN CHEMICAL CORPORATION, priority 2019, published 2023).

Key:
late watergrass [1] = experiment: Test Example 1: herbicidal activity, application before weed generation under submerged conditions (Table 16, symbol A); type: in vivo, late watergrass (Echinochloa oryzicola); settings: amount of applied herbicide 320 g/ha
How it was run: (§1)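 Submerged Wagner pots (alluvial soil, 4 cm water) sown with weed seeds and planted with 2.5-leaf rice seedlings; emulsifiable concentrate diluted in water applied to water surface on sowing day. Held in greenhouse at 25-30 °C; injury scored 0-5 by herbicidal rate after three weeks.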

Japanese bulrush = experiment: Test Example 1: herbicidal activity, application before weed generation under submerged conditions (Table 16, symbol B); type: in vivo, Japanese bulrush (Schoenoplectus juncoides); settings: amount of applied herbicide 320 g/ha
How it was run: as §1

late watergrass [2] = experiment: Test Example 2: herbicidal activity, application during weed generation under submerged conditions (Table 17, symbol A); type: in vivo, late watergrass (Echinochloa oryzicola); settings: AAH 320 g/ha; application during weed generation, submerged conditions
How it was run: (§2)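 In this pot test, flooded alluvial soil (water depth 4 cm) holds all three species sown as a mixture. Once seedlings have one to two leaves, the compound's emulsion, thinned with water to the intended dose, is poured on the water; grading follows after three weeks on the earlier criteria.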

oval-leafed pondweed = experiment: Test Example 2: herbicidal activity, application during weed generation under submerged conditions (Table 17, symbol C); type: in vivo, oval-leafed pondweed (Monochoria vaginalis); settings: AAH 320 g/ha; application during weed generation, submerged conditions
How it was run: as §2

barnyard grass [3] = experiment: Test Example 3: herbicidal effect by foliage application, Wagner pot (Table 18, symbol H); type: in vivo, barnyard grass (Echinochloa crus-galli); settings: 320 g/ha
How it was run: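 Plants were sown in alluvial soil held under 0.1–0.5 cm standing water and grown 14 days in a greenhouse at 25–30 °C. An emulsifiable formulation, water-diluted to the set dose, was then sprayed onto the foliage, and effects were scored three weeks later using previously defined criteria.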

southern crabgrass [4] = experiment: Test Example 4: herbicidal effect by soil treatment (Table 19, symbol F); type: in vivo, southern crabgrass (Digitaria ciliaris); settings: amount of applied herbicide 320 g/ha
How it was run: (§3)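 Herbicidal effect was rated 3 weeks after treatment, using the scoring criteria of an earlier test. The compound, formulated as an emulsion and diluted in water to a set herbicide amount, had been sprayed uniformly on soil over freshly sown seeds. Growth took place in a greenhouse at 25° C. to 30° C.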

barnyard grass [5] = experiment: Test Example 4: herbicidal effect by soil treatment (Table 19, symbol H); type: in vivo, barnyard grass (Echinochloa crus-galli); settings: amount of applied herbicide 320 g/ha
How it was run: as §3

blackgrass = experiment: Test Example 4: herbicidal effect by soil treatment (Table 19, symbol J); type: in vivo, blackgrass (Alopecurus myosuroides); settings: amount of applied herbicide 320 g/ha
How it was run: as §3

chickweed = experiment: Test Example 4: herbicidal effect by soil treatment (Table 19, symbol P); type: in vivo, common chickweed (Stellaria media); settings: amount of applied herbicide 320 g/ha
How it was run: as §3

southern crabgrass [6] = experiment: Test Example 5: herbicidal effect by foliage application, plastic box (Table 20, symbol F); type: in vivo, southern crabgrass (Digitaria ciliaris); settings: 320 g/ha; for F: southern crabgrass, herbicidal effect grade: foliage application, three weeks after application; for herbicidal effect on F: southern crabgrass (evaluation grade 0-5): foliage application after 14-day growth, evaluated three weeks after application
How it was run: (§4)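 Foliar spray test: emulsion formulation diluted in water to a set application rate, sprayed onto 14-day-old plants raised in diluvial soil at 25° C to 30° C under glass. Both herbicidal effect and crop effect rated visually three weeks later.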

green foxtail = experiment: Test Example 5: herbicidal effect by foliage application, plastic box (Table 20, symbol G); type: in vivo, green foxtail (Setaria viridis); settings: 320 g/ha; for G: green foxtail, herbicidal effect grade: foliage application, three weeks after application; for herbicidal effect on G: green foxtail (evaluation grade 0-5): foliage application after 14-day growth, evaluated three weeks after application
How it was run: as §4

wild oat = experiment: Test Example 5: herbicidal effect by foliage application, plastic box (Table 20, symbol I); type: in vivo, wild oat (Avena fatua); settings: 320 g/ha; for I: wild oat, herbicidal effect grade: foliage application, three weeks after application; for herbicidal effect on I: wild oat (evaluation grade 0-5): foliage application after 14-day growth, evaluated three weeks after application
How it was run: as §4

windgrass = experiment: Test Example 5: herbicidal effect by foliage application, plastic box (Table 20, symbol L); type: in vivo, windgrass (Apera spica-venti); settings: 320 g/ha; for L: windgrass, herbicidal effect grade: foliage application, three weeks after application; for herbicidal effect on L: windgrass (evaluation grade 0-5): foliage application after 14-day growth, evaluated three weeks after application
How it was run: as §4

redroot pigweed = experiment: Test Example 5: herbicidal effect by foliage application, plastic box (Table 20, symbol N); type: in vivo, redroot pigweed (Amaranthus retroflexus); settings: 320 g/ha; for N: redroot pigweed, herbicidal effect grade: foliage application, three weeks after application; for herbicidal effect on N: redroot pigweed (evaluation grade 0-5): foliage application after 14-day growth, evaluated three weeks after application
How it was run: as §4

lambsquarters = experiment: Test Example 5: herbicidal effect by foliage application, plastic box (Table 20, symbol O); type: in vivo, lambsquarters (Chenopodium album); settings: 320 g/ha; for O: lambsquarters, herbicidal effect grade: foliage application, three weeks after application; for herbicidal effect on O: lambsquarters (evaluation grade 0-5): foliage application after 14-day growth, evaluated three weeks after application
How it was run: as §4

persian speedwell = experiment: Test Example 5: herbicidal effect by foliage application, plastic box (Table 20, symbol R); type: in vivo, Persian speedwell (Veronica persica); settings: 320 g/ha; for R: persian speedwell, herbicidal effect grade: foliage application, three weeks after application; for herbicidal effect on R: persian speedwell (evaluation grade 0-5): foliage application after 14-day growth, evaluated three weeks after application
How it was run: as §4

Row | Structure (SMILES) | Herbicidal effect, A: late watergrass (late watergrass [1]) | Herbicidal effect, B: Japanese bulrush (Japanese bulrush) | herbicidal effect rating, A: late watergrass (late watergrass [2]) | herbicidal effect rating, C: oval-leafed pondweed (oval-leafed pondweed) | herbicidal effect on barnyard grass (H) (barnyard grass [3]) | F: southern crabgrass, herbicidal effect grade (southern crabgrass [6]) | G: green foxtail, herbicidal effect grade (green foxtail) | I: wild oat, herbicidal effect grade (wild oat) | L: windgrass, herbicidal effect grade (windgrass) | Herbicidal effect by soil treatment, F: southern crabgrass (southern crabgrass [4]) | Herbicidal effect by soil treatment, H: barnyard grass (barnyard grass [5]) | Herbicidal effect by soil treatment, J: blackgrass (blackgrass) | Herbicidal effect by soil treatment, P: chickweed (chickweed) | herbicidal effect on F: southern crabgrass (evaluation grade 0-5) (southern crabgrass [6]) | herbicidal effect on G: green foxtail (evaluation grade 0-5) (green foxtail) | herbicidal effect on I: wild oat (evaluation grade 0-5) (wild oat) | herbicidal effect on L: windgrass (evaluation grade 0-5) (windgrass) | herbicidal effect on N: redroot pigweed (evaluation grade 0-5) (redroot pigweed) | herbicidal effect on O: lambsquarters (evaluation grade 0-5) (lambsquarters) | herbicidal effect on R: persian speedwell (evaluation grade 0-5) (persian speedwell) | also measured
1 | COc1ccccc1-c1sc2cc(OCCSC)ccc2c1-c1c(O)c(C)nn(C)c1=O [3-125] | 3 (Herbicidal rate of 40% or more and less than 70%) | 3 (Herbicidal rate of 40% or more and less than 70%) | 0 (Herbicidal rate of 5% or less (almost no effect)) | 3 (Herbicidal rate of 40% or more and less than 70%) | 5 (Herbicidal rate of 90% or more (almost completely withered)) | 5 (Herbicidal rate of 90% or more (almost completely withered)) | 5 (Herbicidal rate of 90% or more (almost completely withered)) | 5 (Herbicidal rate of 90% or more (almost completely withered)) | 5 (Herbicidal rate of 90% or more (almost completely withered)) |  |  |  |  |  |  |  |  |  |  |  | F: southern crabgrass, herbicidal effect grade (southern crabgrass [4]): 3 (Herbicidal rate of 40% or more and less than 70%); H: barnyard grass, herbicidal effect grade (barnyard grass [5]): 0 (Herbicidal rate of 5% or less (almost no effect)); J: blackgrass, herbicidal effect grade (blackgrass): 5 (Herbicidal rate of 90% or more (almost completely withered)); P: chickweed, herbicidal effect grade (chickweed): 5 (Herbicidal rate of 90% or more (almost completely withered)); N: redroot pigweed, herbicidal effect grade (redroot pigweed): 5 (Herbicidal rate of 90% or more (almost completely withered)); O: lambsquarters, herbicidal effect grade (lambsquarters): 4 (Herbicidal rate of 70% or more and less than 90%); R: persian speedwell, herbicidal effect grade (persian speedwell): 5 (Herbicidal rate of 90% or more (almost completely withered))
2 | COc1ccccc1-c1sc2cc(OCC3CCCO3)ccc2c1-c1c(O)c(C)nn(C)c1=O (centres unmarked) [3-133] | 3 (Herbicidal rate of 40% or more and less than 70%) | 3 (Herbicidal rate of 40% or more and less than 70%) | 2 (Herbicidal rate of 20% or more and less than 40%) | 1 (Herbicidal rate of 5% or more and less than 20%) | 3 (Herbicidal rate of 40% or more and less than 70%) | 4 (Herbicidal rate of 70% or more and less than 90%) | 5 (Herbicidal rate of 90% or more (almost completely withered)) | 4 (Herbicidal rate of 70% or more and less than 90%) | 5 (Herbicidal rate of 90% or more (almost completely withered)) | 2 (Herbicidal rate of 20% or more and less than 40%) | 1 (Herbicidal rate of 5% or more and less than 20%) | 3 (Herbicidal rate of 40% or more and less than 70%) | 4 (Herbicidal rate of 70% or more and less than 90%) |  |  |  |  |  |  |  | N: redroot pigweed, herbicidal effect grade (redroot pigweed): 5 (Herbicidal rate of 90% or more (almost completely withered)); O: lambsquarters, herbicidal effect grade (lambsquarters): 5 (Herbicidal rate of 90% or more (almost completely withered)); R: persian speedwell, herbicidal effect grade (persian speedwell): 5 (Herbicidal rate of 90% or more (almost completely withered))
3 | COc1ccc2c(-c3c(OC(=O)c4ccccc4OC)c(C)nn(C)c3=O)c(-c3ccccc3OC)sc2c1 [3-158] | 5 (Herbicidal rate of 90% or more (almost completely withered)) | 5 (Herbicidal rate of 90% or more (almost completely withered)) | 4 (Herbicidal rate of 70% or more and less than 90%) | 5 (Herbicidal rate of 90% or more (almost completely withered)) | 5 (Herbicidal rate of 90% or more (almost completely withered)) |  |  |  |  | 0 (Herbicidal rate of 5% or less (almost no effect)) | 0 (Herbicidal rate of 5% or less (almost no effect)) | 0 (Herbicidal rate of 5% or less (almost no effect)) | 1 (Herbicidal rate of 5% or more and less than 20%) | 5 (Herbicidal rate of 90% or more (almost completely withered)) | 5 (Herbicidal rate of 90% or more (almost completely withered)) | 3 (Herbicidal rate of 40% or more and less than 70%) | 5 (Herbicidal rate of 90% or more (almost completely withered)) | 5 (Herbicidal rate of 90% or more (almost completely withered)) | 5 (Herbicidal rate of 90% or more (almost completely withered)) | 5 (Herbicidal rate of 90% or more (almost completely withered)) | 
4 | CCCOc1ccc(-c2sc3c(Cl)cccc3c2-c2c(OC(=O)CCC)c(C)nn(C)c2=O)cc1 [4-028] | 3 (Herbicidal rate of 40% or more and less than 70%) | 3 (Herbicidal rate of 40% or more and less than 70%) | 3 (Herbicidal rate of 40% or more and less than 70%) | 0 (Herbicidal rate of 5% or less (almost no effect)) | 5 (Herbicidal rate of 90% or more (almost completely withered)) |  |  |  |  | 0 (Herbicidal rate of 5% or less (almost no effect)) | 0 (Herbicidal rate of 5% or less (almost no effect)) | 0 (Herbicidal rate of 5% or less (almost no effect)) | 0 (Herbicidal rate of 5% or less (almost no effect)) | 0 (Herbicidal rate of 5% or less (almost no effect)) | 3 (Herbicidal rate of 40% or more and less than 70%) | 0 (Herbicidal rate of 5% or less (almost no effect)) | 0 (Herbicidal rate of 5% or less (almost no effect)) | 5 (Herbicidal rate of 90% or more (almost completely withered)) | 5 (Herbicidal rate of 90% or more (almost completely withered)) | 5 (Herbicidal rate of 90% or more (almost completely withered)) | 
5 | CCCC(=O)Oc1c(C)nn(C)c(=O)c1-c1c(-c2ccc(SC)cc2)sc2c(F)cccc12 [4-051] | 4 (Herbicidal rate of 70% or more and less than 90%) | 3 (Herbicidal rate of 40% or more and less than 70%) | 3 (Herbicidal rate of 40% or more and less than 70%) | 0 (Herbicidal rate of 5% or less (almost no effect)) | 5 (Herbicidal rate of 90% or more (almost completely withered)) |  |  |  |  | 0 (Herbicidal rate of 5% or less (almost no effect)) | 0 (Herbicidal rate of 5% or less (almost no effect)) | 0 (Herbicidal rate of 5% or less (almost no effect)) | 4 (Herbicidal rate of 70% or more and less than 90%) | 0 (Herbicidal rate of 5% or less (almost no effect)) | 3 (Herbicidal rate of 40% or more and less than 70%) | 4 (Herbicidal rate of 70% or more and less than 90%) | 5 (Herbicidal rate of 90% or more (almost completely withered)) | 5 (Herbicidal rate of 90% or more (almost completely withered)) | 5 (Herbicidal rate of 90% or more (almost completely withered)) | 5 (Herbicidal rate of 90% or more (almost completely withered)) | 
